For the test, the system named is CEM cells HIV-1 protection, formazan growth assay. The experiment in a line: NCI AIDS Antiviral Assay. As to conditions: for pIC50: measured here: growth of uninfected CEM cells. Summed up:
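Human CEM cells, uninfected and HIV-1-infected, exposed to five drug concentrations; growth measured by soluble formazan assay and scored as percent protection from infection, with protecting compounds retested.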

Here are results for 72 compounds from PubChem BioAssay AID179 (DTP/NCI, 2004).

pEC50, pIC50: −log10 of the molar value. Active and inactive are the calls of the source.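 Rule for the calls: active = compounds giving half or more protection of infected cells from virus-caused growth loss, again on retest; inactive = the rest.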 Where a SMILES comes first, the peptide text is derived from it. The star is where a group is joined. Boc = CC(C)(C)OC(=O)*; OBn = c1ccc(CO*)cc1

As for `Cc1ccc(N=C(SSC(Cl)(Cl)Cl)SSC(Cl)(Cl)Cl)cc1`, the result was inactive.
Turning to `CC(C)OP(=O)(OC(C)C)/C(Cl)=N/Nc1ccc([N+](=O)[O-])cc1`, the pEC50 is under 4.15 and the pIC50 is under 4.15.
`C=c1[nH]c(=O)c(=C)[nH]c1=O`: the pEC50 was under 4.14 and the pIC50 is 4.58.
`CCSc1cc(=O)n(C)c(=O)n1C`: the result was inactive.
On the same count and under the same terms, under `O=C1c2ccccc2-c2c3c(cc4ccnc1c24)OCO3` stands “inactive”.
On to `CN(C)CC1CC(=O)C(CN(C)C)CC1=O` (stereo not drawn), for which the pEC50 was under 3.08 and the pIC50 was 5.60.
The corresponding values for `O=C1OC(c2ccc3c(c2)OCO3)Sc2ccccc21` (stereo not drawn) are under 4.74 and under 4.74.
With `O=c1oc2cc(O)ccc2c(O)c1C(c1cccnc1)c1c(O)c2ccc(O)cc2oc1=O`, the result was inactive.
With `O=[N+]([O-])/C(C(Cl)=C(Cl)Cl)=C1\Nc2ccccc2O1`, the pEC50 is under 3.70 and the pIC50 is 4.01.
With `CCC12C=CCN(CCc3c([nH]c4ccccc34)/C=C\1)C2` (stereo not drawn), the pEC50 is under 3.53 and the pIC50 is under 3.53.
Consider `CCCCCCCCSC1OC(CO)C(O)C(O)C1O` (stereo not drawn), for which the result was inactive.
Regarding `C[C@]12CCC(OS(=O)(=O)O)CC1=CCC1C2CC[C@@]2(C)C1CC[C@@H]2C(=O)O` (stereo partly drawn), the pEC50 was under 3.37 and the pIC50 was 3.38.
Regarding `CN(O)C(=O)c1ccc(OCc2cccc(Cl)c2)cc1`, the pEC50 was under 3.70 and the pIC50 is 4.90.
On to `O=C(NC(Nc1ccc(F)cc1)(C(F)(F)F)C(F)(F)F)C(C(F)(F)F)C(F)(F)F`, for which the outcome was inactive.
Take `Cc1cc(=O)[nH]c2c3c(ccc12)OC(C)(C)C=C3`: the pEC50 was under 3.70 and the pIC50 is 5.43.
For the compound `Cc1cc(NS(=O)(=O)c2ccc(NC(=O)COC(=O)c3cccc4c(=O)c5ccccc5[nH]c34)cc2)no1`, the result was inactive.
With `Nc1ncnc2c1ncn2[C@@H]1C[C@H]1CO`, the pEC50 was under 3.70 and the pIC50 is under 3.70.
Regarding `CN(C)C(=O)/N=N/C(=O)N(C)C`, the pEC50 is under 4.05 and the pIC50 was 4.17.
Take `N#C/C(=C1\SC(N=Nc2ccccc2)C(=O)N1c1ccccc1)c1nc2ccccc2[nH]1` (stereo not drawn): the pEC50 was under 5.22 and the pIC50 is under 5.22.
On to `CCOC(=O)[C@H]1C[C@H]2O[C@H]2C[C@@H]1C`, for which the result was inactive.
Regarding `COc1ccc2c(c1)CCc1c-2[nH]c2ccc(OC)cc12`, the pEC50 was under 3.70 and the pIC50 is under 3.70.
As to `CSc1c(C#N)c(=C(C#N)C#N)nc(C)/c1=C(\C)O`, the pEC50 is under 4.00 and the pIC50 was under 4.00.
Regarding `CC(Oc1cc2oc(=O)cc(-c3ccccc3)c2cc1Cl)C(=O)O` (stereo not drawn), the outcome was inactive.
In the case of `O=c1oc2ccccc2c(O)c1C(c1cccs1)c1c(O)c2ccccc2oc1=O`, the pEC50 is under 3.70 and the pIC50 was 4.52.
`O=S1(=O)CCC(OC2CCS(=O)(=O)C2)C1` (stereo not drawn): the pEC50 is under 3.01 and the pIC50 is under 3.01.
Turning to `O=S1(=O)c2ccccc2N(O)C2=NCCN21`, the pEC50 was under 3.26 and the pIC50 was 4.04.
As for `CS(C)=O`, the pEC50 is under 3.70 and the negative logarithm of the IC50 (pIC50) is under 3.70.
For the compound `CC(C)N1CCOC(c2ccc(O)c(O)c2)C1` (stereo not drawn), the pEC50 is under 3.70 and the pIC50 was 4.02.
For `COc1ccc(C(=O)C(C(=O)CCC(=O)Nc2cccc(C(F)(F)F)c2)c2ccccc2)cc1` (stereo not drawn), in that order: under 4.95 and under 4.95.
`O=C1C2Nc3ccccc3SC2C(=O)N1c1ccc(Br)cc1` (stereo not drawn): the pEC50 is under 4.72 and the pIC50 was under 4.72.
With `CCOC(=O)c1nnsc1NC(=O)NN`, the pEC50 was under 3.70 and the negative logarithm of the IC50 (pIC50) is under 3.70.
As to `C/C(CC1SCCCS1)=C(/C)CC1SCCCS1`, the pEC50 is under 3.70 and the pIC50 is under 3.70.
Consider `CN(C(=O)C12C3C4(C(=O)O)C1(C(=O)N(C)C(C)(C)C)C1C2(C(=O)O)C3(C(=O)N(C)C(C)(C)C)C14C(=O)N(C)C(C)(C)C)C(C)(C)C` (stereo not drawn), for which the pEC50 is under 3.82 and the negative logarithm of the IC50 (pIC50) is under 3.82.
As for `COc1cc(C2C(Cl)C(=O)N2NC(=O)c2ccc(N)cc2)cc(Br)c1O` (stereo not drawn), the pEC50 is under 3.70 and the pIC50 was 4.88.
For the compound `CCOC(=O)Nc1nc2ccn(C)c2s1`, the pEC50 was under 3.70 and the pIC50 was under 3.70.
Take `O=C1OCCN(CCO)C12CCCC2`: the pEC50 is under 3.12 and the pIC50 is under 3.12.
With `CN(C)c1ccc(/C=C/C(=O)c2ccccc2)cc1`, the pEC50 was under 4.40 and the pIC50 is 4.83.
On to `CCOC(=O)C(/C=N\C(=S)Nc1ccc(Cl)c(Cl)c1)=C(/O)c1ccccc1`, for which the pEC50 is under 3.70 and the negative logarithm of the IC50 (pIC50) was 4.62.
As to `c1ccc(CN(Cc2ccccn2)Cc2ccccn2)cc1`, the result was inactive.
As to `C/C=C/C=Nc1c(C#N)c2n(c1C(=O)Nc1ccc(OC)cc1)CCC2`, the pEC50 is under 3.70 and the pIC50 is under 3.70.
For `CC(=O)OCCCCn1cnc2c(Cl)nc(Nc3ccccc3)nc21`, the pEC50 is under 3.70 and the negative logarithm of the IC50 (pIC50) is under 3.70.
On to `O=C1NCN(c2ccccc2)C12CCN(CCCSc1ccc(F)cc1)CC2`, for which the pEC50 was under 3.70 and the pIC50 is 4.74.
`CCC1(c2ccccc2)Sc2ccccc2-n2cccc2C1=O` (stereo not drawn): the pEC50 was 4.74 and the pIC50 is 3.81.
For `O=C1/C(=C/c2cccc([N+](=O)[O-])c2)CCc2ccccc21`, the pEC50 is under 5.01 and the negative logarithm of the IC50 (pIC50) was under 5.01.
For the compound `CC(=O)N(C[C@H]1CN(Cc2ccccc2)CC[C@H]1O)C12CC3CC(CC(C3)C1)C2`, the pEC50 was under 4.04 and the pIC50 was 4.16.
With `O=C1/C(=C/c2cccc(Br)c2)CCc2ccccc21`, the pEC50 is under 3.70 and the negative-log IC50 (pIC50) is 5.14.
Take `CCOP(=O)(OCC)C(c1ccccc1)N(C(=O)NC(F)(F)F)c1ccc(C)cc1` (stereo not drawn): the pEC50 is under 3.70 and the pIC50 is under 3.70.
For the compound `Nn1ccc(=O)c2c1-c1ccccc1C(c1ccccc1)c1ccccc1-2` (stereo not drawn), the pEC50 was under 3.70 and the pIC50 is 4.62.
With `Cn1nc2ccc3nccc(NCCNCCO)c3c2n1`, the pEC50 was under 3.06 and the pIC50 was 5.41.
As to `COc1cc(Br)c2nsnc2c1`, the pEC50 is under 4.53 and the pIC50 is under 4.53.
In the case of `CC(C)CCCC(C)[C@H]1CCC2[C@@H]3CCC4C[C@@H](CCC=C(c5cc(Cl)c(O)c(C(=O)NO)c5)c5cc(Cl)c(O)c(C(=O)NO)c5)CC[C@]4(C)C3CC[C@@]21C` (stereo partly drawn), the pEC50 is under 3.70 and the pIC50 was under 3.70.
As for `COc1ccc(C(=O)CC(c2ccccc2)[C@H]2C(c3ccc(OC)cc3)=Nc3c(nc(SC)n(C)c3=O)NC2c2ccccc2)cc1` (stereo partly drawn), the pEC50 is under 3.70 and the pIC50 was 4.72.
As for `CN(C)CCC(=O)N1C/C(=C/c2ccccc2)C(=O)/C(=C\c2ccccc2)C1`, the pEC50 is under 4.76 and the pIC50 was 6.47.
Take `CCC1=C(CC)C1(C#N)[N+](=O)[O-]`: the pEC50 was under 3.60 and the pIC50 is under 3.60.
Regarding `O=NC1C(Cl)C2CC1C1C(Br)C(Br)CC21` (stereo not drawn), the pEC50 is under 3.70 and the pIC50 is under 3.70.
On to `O=C(Oc1cccc2cccnc12)c1ccccc1`, for which the pEC50 is under 3.70 and the negative-log IC50 (pIC50) was 4.47.
Take `CC(C)CN(CC(C)C)C(=O)C1CCCC[C@@H]1C(=O)O` (stereo partly drawn): the pEC50 is under 3.05 and the pIC50 was under 3.05.
Take `COc1ccccc1NC(=S)NN=C(C)c1cccc(C(C)=NNC(=S)Nc2ccccc2OC)n1`: the pEC50 was under 3.70 and the pIC50 was 4.46.
`CC1CCCCNC1=S` (stereo not drawn): the pEC50 was under 3.70 and the pIC50 was under 3.70.
As to `COC(=O)[C@H](Cc1c[nH]c2ccccc12)NC(=O)OCC1OC(n2cc(C)c(=O)[nH]c2=O)CC1N=[N+]=[N-]` (stereo partly drawn), the pEC50 is under 3.80 and the pIC50 is 3.88.
For `O=C(O)c1ccccc1-c1c2cc([N+](=O)[O-])c(=O)c(Br)c-2oc2c(Br)c(O)c([N+](=O)[O-])cc12`, in that order: under 3.50 and 5.09.
On to `O=P1(O)c2ccccc2CCc2ccccc21`, for which the pEC50 is under 3.70 and the pIC50 is under 3.70.
Turning to `C[C@@H]1CC[C@@]2(OC1)O[C@H]1C[C@H]3[C@@H]4CC[C@H]5C[C@@H](OC6OC(CO)C(OC7OC(CO)C(O)C(OC8OCC(O)C(O)C8O)C7OC7OC(CO)C(O)C(O)C7O)C(O)C6O)[C@H](O)C[C@]5(C)[C@H]4CC[C@]3(C)[C@H]1[C@@H]2C` (stereo partly drawn), the pEC50 was under 5.70 and the pIC50 is 6.00.
For the compound `Cc1ccccc1NC(=S)N/N=C(/c1ccccc1)c1ccccn1`, the pEC50 was under 6.70 and the pIC50 is 7.17.
Turning to `N/C=N/S(=O)(=O)c1ccc(NC(=O)COC(=O)c2cccc3c(=O)c4ccccc4[nH]c23)cc1`, the outcome was inactive.
In the case of `CC(C)CC(NC(=O)OC(C)(C)C)C(=O)NC(CCC(=O)OCc1ccccc1)C(N)=O` (stereo not drawn) (Boc-Leu-Glu(OBn)-NH2; configuration not given here), the pEC50 is under 3.70 and the pIC50 is 3.72.
In the case of `CC(C)[Si]1(C(C)C)OCC2OC(n3ccc(=O)[nH]c3=O)C([Se]c3ccccc3)C2O[Si](C(C)C)(C(C)C)O1` (stereo not drawn), the pEC50 is under 3.70 and the pIC50 was 4.97.
Regarding `Cc1c(C(=O)O)n2c(C)nnc2c2ccccc12`, the pEC50 is under 3.70 and the pIC50 is under 3.70.
For `CCOC(=O)Nc1[nH]cc(-c2ccccc2)c1C#N`, the pEC50 is under 3.70 and the pIC50 is under 3.70.
For `O=C(CC1=Nc2nnc(CCCCCCCc3nnc4n3C(=O)C(CC(=O)c3ccc5ccccc5c3)=N4)n2C1=O)c1ccc2ccccc2c1`, the pEC50 was under 5.39 and the pIC50 was under 5.39.
In the case of `O=c1[nH]n(Cc2ccccc2Cl)c2ccccc12`, the pEC50 is under 3.70 and the pIC50 is under 3.70.
For the compound `CC(C)OC(=O)c1ccc(NCC2=CC(=O)C=CC2=O)cc1`, the pEC50 is under 3.70 and the negative-log IC50 (pIC50) is 5.11.
